# What was measured:
# [1] = system: L1210 leukemia; settings: single intraperitoneal dose; cited from earlier work
# [2] = system: tumor; settings: in vivo; cited from earlier work
# [3] = system: host animals; settings: in vivo; cited from earlier work
# [4] = Initial rate of hydrolysis in aqueous media at pH 7.4 and 37° C.; type: physicochemical
# Procedure: For example, the initial rates of hydrolysis of 2-acetyl-1,2-bis(methylsulfonyl)-1-methylhydrazine (an acyl derivative shown in structural formula 5) and 1,2-bis(methylsulfonyl)-2-methoxycarbonyl-1-methylhydrazine (a carbamate compound shown in structural formula 6) were 0.3% and 0.007% per minute, respectively, at pH 7.4 and 37° C. [drawing 12]
# [5] = system: proteinase K or serum; test: Effect of proteinase K or serum on rate of decomposition/activation; type: in vitro ADME
# [6] = system: GSH/GST; test: Relative rate of activation by GSH/GST in vitro; type: in vitro ADME; settings: 1 mM compound, GSH 1 mM, GST 400 μg/ml; compound 6 = 100
# Procedure: When R^3 is a methyl group, the rate of activation by GSH/GST is highly dependent upon the nature of the 2-alkoxy- or 2-aryloxycarbonyl moiety at the R^4 position.
# The rate of activation of 2-(2-bromoethoxy)carbonyl-1,2-bis(methylsulfonyl)-1-methylhydrazine (compound 8) was elevated approximately 18-fold in vitro by the presence of GSH (1 mM) and GST (400 μg/ml), compared to buffer alone.
# [7] = Activation by hydrolysis in phosphate buffer; type: physicochemical
# Procedure: (§1) The rates of activation of compounds 10a-h were measured in 1 mM phosphate buffer (pH 7.4, 37° C.) alone, 1 mM phosphate buffer containing 5 mM GSH (pH 7.4, 37° C.), and in 1 mM phosphate buffer containing 5 mM GSH and 17.5 U/ml of GST (pH 7.4, 37° C.) (Table 3).
# [8] = Activation by thiolysis (GSH); type: in vitro ADME
# Procedure: as §1
# [9] = system: GST; test: Activation by GST-catalyzed thiolysis; type: in vitro ADME
# Procedure: as §1
# [10] = system: L1210 leukemia; test: Survival time and body weight of mice bearing the L1210 leukemia; type: in vivo, mice (CD2 F1); settings: Table 4; i.p. once daily for 6 days at optimum daily dose (10a 60, 10b 25, 10c 12.5, 10d-h 30 mg/kg)
# Procedure: The ascites cell form of leukemia L1210 was obtained from the Frederick Cancer Research Facility, Division of Cancer Treatment Tumor Repository of the National Cancer Institute, and was maintained by serial passage in tissue culture. Every 8 weeks, tumor cells were injected intraperitoneally into 5 donor CD2 F1 mice 8-10 weeks of age and were allowed to grow for 7 days. The peritoneal fluid was withdrawn, and the suspension was centrifuged for 5 min at 1600×g. The supernatant was decanted, and 10^5 cells/ml were seeded into 10 ml of RPMI 1640 medium supplemented with 10% fetal bovine serum and 1% L-glutamine (200 mM) and once again maintained in culture. To assay for antitumor activity, 0.1 ml of the cell suspension containing 10^5 leukemia cells was injected into each recipient mouse. […] Each drug was administered intraperitoneally as a solution in 100% dimethyl sulfoxide, in a volume not exceeding 25 μl. […] Mice were weighed during the course of the experiments, and the percentage change in body weight from onset to termination of therapy was used as an indication of drug toxicity. Determination of the sensitivity of neoplasms to these agents was based upon the prolongation of survival time afforded by the drug treatments.
# The antitumor activity of compounds 10a-h and 16 were assessed in mice bearing the L1210 leukemia. The results of these tests are summarized in Tables 4 and 5 which show the effects of 2-alkoxycarbonyl- and 2-aryloxycarbonyl-1,2-bis(methylsulfonyl)-1-(2-chloroethyl)hydrazines on the survival time of mice bearing the L1210 leukemia.
# In Table 4, the optimum daily dose was administered once per day for six consecutive days, beginning 24 hours after tumor implantation, with 5-10 mice being used per group. In Table 5, multiple dosages of compound 16 are indicated. "Av Δ wt" refers to the average percent change in body weight from onset to termination of therapy. "% T/C" refers to the average survival time of treated/control mice×100. Cures (60-day survivors) are listed separately and are not included in this calculation.
# [11] = system: EMT6 mammary carcinoma cells; test: Colony-forming assay, EMT6 cells under hypoxic or aerobic conditions; type: cell-based, mouse; settings: 1 hr exposure
# Procedure: (§2) The ability of compounds 10h, 11, 12, and 14 to exert preferential toxicity to hypoxic cells was evaluated using the EMT6 mammary carcinoma by methodology described previously (Rockwell, S., Keyes, S. R., and Sartorelli, A. C. Rad. Res. 116: 100-113 (1988); Keyes, S. R., Rockwell, S., and Sartorelli, A. C. Cancer Res. 45: 213-216 (1985)). Briefly, exponentially growing monolayers of EMT6 (or CHO-K1/dhfr clone) were exposed to a continuously flowing 95% N2 /5% CO2 humidified atmosphere for 2 h to produce radiobiologic hypoxia. Parallel flasks were maintained similarly in humidified 95% air/5% CO2. Without breaking the hypoxia, cells were exposed to various concentrations of the test agent for 1 hr. Cell survival was then measured by colony formation.
# The cytotoxicity of compound 10h was evaluated against EMT6 mouse mammary carcinoma cells in vitro under aerobic and hypoxic conditions using the colony-forming assay described above. FIG. 1 depicts the survival of EMT6 cells exposed to various concentrations of compound 10h for 1 hr under hypoxic or aerobic conditions in vitro. Points are the geometric means of two or more independent determinations of surviving fractions. The SEMs are shown where n≥3 and where the error is larger than the point size. Open triangles represent aerobic data points and filled triangles represent hypoxic data points.
# Compound 12 was evaluated for its ability to exert preferential toxicity to hypoxic EMT6 cells relative to their aerobic counterparts. […] Points are geometric means of two or more independent determinations of surviving fractions. The SEMs are shown where n≥3 and where the error is larger than the point size. Open triangles are aerobic data points, and filled triangles are hypoxic data points. […] Points are means of duplicate determinations. Open triangles are parental-aerobic; filled triangles are parental-hypoxic; open circles are NADPH:cytochrome P450 reductase-transfected-aerobic; filled circles are NADPH:cytochrome P450 reductase-transfected-hypoxic.
# [12] = system: CHO-K1/dhfr^- cells; test: Colony-forming assay, aerobic and hypoxic CHO-K1/dhfr^- cells; type: cell-based, Chinese hamster
# Procedure: as §2
# CHO-K1/dhfr cells were used to examine the role of the reductive enzymes NADPH:cytochrome P450 reductase and DT-diaphorase in the activation of compounds 10h and 12 in situ. Clones of CHO-K1/dhfr^- cells transfected with and overexpressing cDNAs for each of these enzymes were used for this purpose (Belcourt, M. F., Hodnick, W. F., Rockwell, S., and Sartorelli, A. C. Proc. Natl. Acad. Sci. USA 93: 456-460 (1996); Belcourt, M. F., Hodnick, W. F., Rockwell, S., and Sartorelli, A. C. Biochem. Pharmacol. 51: 1669-1678 (1996)).
# (§3) The cytotoxicity of compound loh was evaluated in aerobic and hypoxic Chinese hamster ovary (CHO-K1/dhfr^-) cells transfected with and overexpressing cDNAs for NADPH:cytochrome P450 reductase (27-fold more than parental cells, FIG. 3) or DT-diaphorase (133-fold more than parental cells, FIG. 4), two reductases with the potential to activate compound 10h. In FIGS. 3 and 4, points are means of duplicate determinations. […]
# (§4) Compound 12 was evaluated for its ability to exert preferential toxicity to hypoxic EMT6 cells relative to their aerobic counterparts. […]
# [13] = system: CHO-K1/dhfr^- cells transfected with NADPH:cytochrome P450 reductase cDNA; test: Colony-forming assay, CHO-K1/dhfr^- cells overexpressing NADPH:cytochrome P450 reductase; type: cell-based, Chinese hamster
# Procedure: as §2, with “formation. […]” for “formation.”
# as §3, with “10h.” for “10h. In FIGS. 3 and 4, points are means of duplicate determinations.”
# as §4
# [14] = system: CHO-K1/dhfr^- cells transfected with DT-diaphorase cDNA; test: Colony-forming assay, CHO-K1/dhfr^- cells overexpressing DT-diaphorase; type: cell-based, Chinese hamster; settings: 133-fold overexpression versus parental; FIG. 4
# Procedure: as §2
# CHO-K1/dhfr cells were used to examine the role of the reductive enzymes NADPH:cytochrome P450 reductase and DT-diaphorase in the activation of compounds 10h and 12 in situ. […]
# as §3, with “10h.” for “10h. In FIGS. 3 and 4, points are means of duplicate determinations.”
structure (smiles),measurement,setting,value
"CS(=O)(=O)NN(CCCl)S(C)(=O)=O [Compound 2, 1,2-bis(methylsulfonyl)-1-(2-chloroethyl)hydrazine]",cures of mice bearing the L1210 leukemia,[1],40%
same,active dosage range (in words),[2],active only over a narrow dosage range
same,antitumor/antineoplastic activity (in words),[2],most active compound of this class
same,host toxicity (in words),[3],considerable host toxicity
"CC(=O)N(N(C)S(C)(=O)=O)S(C)(=O)=O [Compound 5, 2-acetyl-1,2-bis(methylsulfonyl)-1-methylhydrazine, reference compound]",initial rate of hydrolysis,[4],0.3 % per minute
same,enhancement of rate of activation by proteinase K or serum,[5]; levels of proteinase K or serum,~10 fold
"COC(=O)N(N(C)S(C)(=O)=O)S(C)(=O)=O [Compound 6, 1,2-Bis(methylsulfonyl)-2-(methoxycarbonyl)-1-methylhydrazine]",Relative Activation Rate by GSH/GST,[6],100
same,initial rate of hydrolysis,[4],0.007 % per minute
same,increase of rate of decomposition by proteinase K or serum,[5]; levels that enhanced activation of compound 5 almost 10-fold,not appreciably increased
"CS(=O)(=O)N(CCCl)N(C(=O)OCc1ccc([N+](=O)[O-])cc1)S(C)(=O)=O [Compound 10h, 1,2-Bis(methylsulfonyl)-1-(2-chloroethyl)-2-[(4-nitrobenzyloxy)carbonyl]hydrazine]",Calculated Activation Rate due to Hydrolysis,"[7]; 1 mM phosphate buffer, pH 7.4, 37° C.",not detected
same,hydrolysis in phosphate buffer (in words),"[7]; phosphate buffer, physiological pH",little or no hydrolysis
same,Calculated Activation Rate due to Thiolysis (5 mM GSH),"[8]; 1 mM phosphate buffer, 5 mM GSH, pH 7.4, 37° C.",0.06 nmol/mL/min
same,rate of thiolysis with GSH (in words),[8]; reacted with GSH,extremely slow rate of thiolysis
same,Calculated Activation Rate due to Catalyzed Thiolysis (5 mM GSH + 17.5 U/ml GST),"[9]; 1 mM phosphate buffer, 5 mM GSH, 17.5 U/ml GST, pH 7.4, 37° C.",20.5 nmol/mL/min
same,rate of activation when thiolysis is catalyzed by GST (in words),[9]; GSH + GST,relatively high rate of activation
same,Av Δ wt (average percent change in body weight from onset to termination of therapy),[10],-8.6%
same,toxicity to aerobic EMT6 cells (in words),"[11]; 40 μM, aerobic (FIG. 1)",relatively minor toxicity
same,log reduction at 40 µM,"[11]; Mus musculus, EMT6, 40 μM, hypoxic (FIG. 1), read-out: kill of hypoxic EMT6 cells",2
same,sensitivity of CHO-K1/dhfr^- cells compared with EMT6 cells (in words),[12]; FIGS. 3 and 4,less sensitive
same,sensitivity of hypoxic CHO-K1/dhfr^- cells compared with aerobic counterparts (in words),"[12]; hypoxic versus aerobic, FIGS. 3 and 4",more sensitive
same,sensitivity of cells overexpressing NADPH:cytochrome P450 reductase (in words),"[13]; 27-fold overexpression versus parental, FIG. 3",Increased sensitivity
same,kill of hypoxic or oxygenated cells on overexpression of DT-diaphorase (in words),[14],did not result in an increase in the kill of either hypoxic or oxygenated cells
"COc1cc(COC(=O)N(N(CCCl)S(C)(=O)=O)S(C)(=O)=O)c([N+](=O)[O-])cc1OC [Compound 12, 1,2-Bis(methylsulfonyl)-1-(2-chloroethyl)-2-[(4,5-dimethoxy-2-nitrobenzyloxy)carbonyl]hydrazine]",toxicity to aerobic EMT6 cells (in words),"[11]; 50 μM, aerobic (FIG. 5)",relatively minor toxicity
same,log reduction at 50 µM,"[11]; Mus musculus, EMT6, 50 μM, hypoxic (FIG. 5), read-out: kill of hypoxic EMT6 cells",> 3
same,cytotoxicity to aerobic and hypoxic CHO-K1/dhfr^- cells (in words),[12]; 1 hr (FIG. 6),results similar to those described for compound 10h
same,cytotoxicity to hypoxic versus aerobic cells overexpressing NADPH-cytochrome P450 reductase,"[13]; 1 hr, hypoxic versus aerobic (FIG. 6)",> 3000 times

# Reference: US6040338A, “N,n-bis(sulfonyl)hydrazines useful as antineoplastic agents” (Yale University, priority 1997, dated 2000)
